Laboratory results reported in article PMC12627627 (Nature Communications, 2025).
“And” between values parts separate entries of the source, which are not always exact repeats. Equal values may be shown once.

Tests used:
R12 domain of RyR3 = target: T1, R12 domain of RyR3 (Homo sapiens, UniProt Q15413); assay: ITC, R12 domain of RyR3; assay type: binding
T1 construct: RyR1 854–1054, RyR2 865–1065, RyR3 853–1053; made in house; host or cells: E. coli BL21 (DE3)
T1 sequence (Q15413 853-1053): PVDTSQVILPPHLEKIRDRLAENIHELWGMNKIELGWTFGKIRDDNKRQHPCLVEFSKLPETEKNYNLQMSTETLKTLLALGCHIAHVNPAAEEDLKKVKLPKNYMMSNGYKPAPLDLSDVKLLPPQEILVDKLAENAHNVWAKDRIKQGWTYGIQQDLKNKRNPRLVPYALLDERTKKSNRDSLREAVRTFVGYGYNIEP
Description: The plasmids were subsequently transformed into E. coli BL21 (DE3) cells (NEB, USA) and cultured in Luria-Bertani (LB) media at 37 °C. Protein expression was induced with 0.4 mM isopropyl β-D-thiogalactoside (IPTG) when the optical density (OD)600 reached ~0.8, followed by incubation at 18 °C for 12 h. The cells were harvested via centrifugation at 5,000 × g for 15 min at 4 °C and homogenized in Buffer A (10 mM HEPES, pH 7.4, 250 mM KCl) supplemented with 25 µg/mL DNaseI, 25 µg/mL lysozyme, 1 mM phenylmethylsulfonyl fluoride (PMSF), and 20 mM imidazole. The homogenate was centrifuged at 12,000 × g for 45 min, and the supernatant was filtered through a syringe filter (0.22 µm).
Purified R12 domain protein from the three RyR isoforms, fused with hexahistidine-tagged MBP (HMT-R12) was dialyzed overnight at 4 °C in ITC buffer (200 mM HEPES, pH 7.4, 150 mM KCl). ITC experiments were performed using a PEAQ-ITC instrument (Malvern, UK) at 25 °C with a stirring speed of 750 rpm. […] For the ternary binding experiments, 500 μM or 5 mM AMP-PCP/ADP was preincubated with both the titrants and titrates. […] The data was fit to a one-site fitting model after background buffer subtraction. The RyR1 R12 mutants were generated using a QuikChange mutagenesis kit (Stratagene) according to the manufacturer’s protocol, with primer sequences listed in Supplementary Table 3.

WT RyR2 = assay: Time-lapse [Ca2+]ER measurement, HEK293 cells expressing WT RyR2; assay type: cell-based; conditions: for ER luminal [Ca2+] change (F/F0): Fig. 5D source data, single replicates
Description: (§1) HEK293 cells stably expressing R-CEPIA1er and RyRs (WT RyR1, RyR1-W881A, RyR1-W995A, RyR1-R2163C, and WT RyR2)[26],[27] were used in this study. Briefly, the cells were seeded at a density of 2 × 10⁴ cells/well in a 96-well black, clear-bottom plate (Corning). Doxycycline (2 µg/mL) was added 12 h after seeding, and the medium was replaced 24 h later with HEPES-buffered Krebs solution (5 mM HEPES, pH 7.4; 140 mM NaCl; 5 mM KCl; 2 mM CaCl₂; 1 mM MgCl₂; and 11 mM glucose). Fluorescence measurements were conducted using a FlexStation 3 fluorometer (Molecular Devices) at 37 °C. The R-CEPIA1er was excited at 560 nm, emitted at 610 nm, and captured every 10 seconds over 300 seconds. Different concentrations of compound, dissolved in buffer containing 1% DMSO, were added 100 s after recording began. The fluorescence changes (F/F₀) were calculated by dividing the average fluorescence of the last 100 seconds (F) by that of the first 100 seconds (F₀). All measurements were performed in triplicate.

RyR1 W995A = target: T2, RyR1 W995A (Oryctolagus cuniculus, UniProt P11716, W996A); assay: Time-lapse [Ca2+]ER measurement, HEK293 cells expressing RyR1 W995A; assay type: cell-based; conditions: 4 mM caffeine; for ER luminal [Ca2+] change (F/F0): Fig. 5H source data, RyR1-W995A, single replicates
T2 construct: expressed in transfected cells
Description: as §1

WT RyR1 [1] = target: T3, WT RyR1 (Oryctolagus cuniculus, UniProt P11716); assay: Time-lapse [Ca2+]ER measurement, HEK293 cells expressing WT RyR1; assay type: cell-based; conditions: Fig. 5H source data, 4 mM caffeine, single replicates
T3 construct: expressed in transfected cells

WT RyR1 [2] = target: T3, WT RyR1; assay: Ca2+-dependent [3H]ryanodine binding, microsomes; assay type: biochemical; conditions: for [3H]ryanodine binding (B/Bmax): Fig. 5C source data, RI-2 100 μM, single replicates
Description: The assay was performed as previously described[44],[45] with minor modifications. Briefly, microsomes from HEK293 cells stably expressing WT RyR1 were incubated with 5 nM [³H]ryanodine for 5 h at 25 °C in a medium containing 0.17 M NaCl, 20 mM MOPSO (pH 7.0), 2 mM dithiothreitol, 1 mM β,γ-methyleneadenosine 5′-triphosphate, and free Ca²⁺ buffered with 10 mM EGTA at varying concentrations. Free Ca²⁺ levels were calculated using WEBMAXC […][46]. Protein-bound [³H]Ryanodine (B) was isolated by filtration through polyethyleneimine-treated GF/B filters (Whatman) using a Micro 96 Cell Harvester (Skatron Instruments). Nonspecific binding was assessed by adding 20 µM unlabeled ryanodine. The maximum binding capacity of [³H]ryanodine (Bmax) was determined via Scatchard plot analysis with various concentrations (3–20 nM) of [³H]ryanodine in a high-salt medium containing 1 M NaCl. The resulting B/Bmax values represent the average activity of the cells.

[3] = RyR3 R12, no nucleotide, ITC 25 °C

## O=C1CN(/N=C/c2ncc(-c3ccc(Br)cc3)o2)C(=O)N1 [AZU, Azumolene]
R12 domain of RyR3; RyR3 R12 + 500 µM ADP
  Kd: 0.362 ± 0.086 µM
  No of Sites (N): 0.613 ± 0.82
  ΔH: -6.16 ± 0.15 kcal/mol
  −TΔS: -2.63 kcal/mol
R12 domain of RyR3; RyR3 R12 + 500 µM AMP-PCP
  Kd: 0.111 ± 0.025 µM
  No of Sites (N): 0.760 ± 0.45
  ΔH: -7.90 ± 0.11 kcal/mol
  −TΔS: -1.59 kcal/mol
R12 domain of RyR3; RyR3 R12 + 5 mM ADP
  Kd: 0.052 ± 0.013 µM
  No of Sites (N): 0.813 ± 0.48
  ΔH: -7.35 ± 0.11 kcal/mol
  −TΔS: -2.59 kcal/mol
R12 domain of RyR3; RyR3 R12 + 5 mM AMP-PCP
  Kd: 0.048 ± 0.021 µM
  No of Sites (N): 0.854 ± 0.21
  ΔH: -7.80 ± 0.15 kcal/mol
  −TΔS: -2.18 kcal/mol
R12 domain of RyR3; RyR3 R12, no nucleotide
  No of Sites (N): 1.02 ± 0.41
  ΔH: -80 kcal/mol
  −TΔS: 75.40 kcal/mol
R12 domain of RyR3; [3]
  Kd: 394 ± 7.05 µM

## O=C(C[C@@H](NCCCO)C(=O)O)Nc1ccc2ccccc2c1 [RI-2]
WT RyR2; RI-2 0.1 uM
  ER luminal [Ca2+] change (F/F0): 1.012 and 0.991 and 0.9966
WT RyR2; RI-2 0.3 uM
  ER luminal [Ca2+] change (F/F0): 1.053 and 1.031 and 0.9893
WT RyR2; RI-2 1 uM
  ER luminal [Ca2+] change (F/F0): 1.071 and 0.9532 and 1.019
WT RyR2; RI-2 3 uM
  ER luminal [Ca2+] change (F/F0): 0.989 and 1.026 and 1.009
WT RyR2; RI-2 10 uM
  ER luminal [Ca2+] change (F/F0): 1.0308 and 1.04 and 0.9817
WT RyR2; RI-2 30 uM
  ER luminal [Ca2+] change (F/F0): 1.051 and 0.9858 and 1.027
WT RyR2; RI-2 100 uM
  ER luminal [Ca2+] change (F/F0): 1.1169 and 1.011 and 1.1
WT RyR2; dose-dependent [Ca2+]ER measurements
  effect on ER luminal [Ca2+]: no significant effect
RyR1 W995A; RI-2 0.1 uM
  ER luminal [Ca2+] change (F/F0): 1.018 and 1 and 0.9822
RyR1 W995A; RI-2 0.3 uM
  ER luminal [Ca2+] change (F/F0): 1.035 and 1.023 and 0.9731
RyR1 W995A; RI-2 1 uM
  ER luminal [Ca2+] change (F/F0): 1.011 and 1.046 and 0.9965
RyR1 W995A; RI-2 3 uM
  ER luminal [Ca2+] change (F/F0): 1.0547 and 1.017 and 1.01
RyR1 W995A; RI-2 10 uM
  ER luminal [Ca2+] change (F/F0): 1.05 and 1.027 and 0.98
RyR1 W995A; RI-2 30 uM
  ER luminal [Ca2+] change (F/F0): 1.073 and 0.9504 and 1.033
RyR1 W995A; RI-2 100 uM
  ER luminal [Ca2+] change (F/F0): 0.9659 and 1.079 and 1.107
RyR1 W995A; RyR1 W995A
  inhibitory effect in time-lapse ER Ca2+ measurements: completely lost
R12 domain of RyR3; RyR3 R12 + 500 µM ADP
  Kd: 28.6 ± 18.7 µM
  No of Sites (N): 0.509 ± 0.54
  ΔH: -6.40 ± 1.66 kcal/mol
  −TΔS: -0.27 kcal/mol
R12 domain of RyR3; RyR3 R12 + 500 µM AMP-PCP
  Kd: 7.85 ± 2.69 µM
  No of Sites (N): 0.604 ± 0.31
  ΔH: -3.25 ± 0.40 kcal/mol
  −TΔS: -3.72 kcal/mol
R12 domain of RyR3; RyR3 R12 + 5 mM ADP
  Kd: 12.9 ± 6.2 µM
  No of Sites (N): 0.694 ± 0.42
  ΔH: -11.9 ± 4.87 kcal/mol
  −TΔS: 5.75 kcal/mol
R12 domain of RyR3; RyR3 R12 + 5 mM AMP-PCP
  Kd: 3.39 ± 0.83 µM
  No of Sites (N): 0.508 ± 0.21
  ΔH: -4.58 ± 0.28 kcal/mol
  −TΔS: -2.89 kcal/mol
R12 domain of RyR3; RyR3 R12, no nucleotide
  No of Sites (N): 0.970 ± 0.19
  ΔH: -16.2 ± 16.70 kcal/mol
  −TΔS: 10.6 kcal/mol
R12 domain of RyR3; [3]
  Kd: 178 ± 93.1 µM
WT RyR1 [1]; RI-2 0.1 uM
  ER luminal [Ca2+] change (F/F0): 0.9624 and 0.9803 and 0.9793
WT RyR1 [1]; RI-2 0.3 uM
  ER luminal [Ca2+] change (F/F0): 0.9865 and 0.9725 and 0.9809
WT RyR1 [1]; RI-2 1 uM
  ER luminal [Ca2+] change (F/F0): 1.001 and 1.0002 and 0.9956
WT RyR1 [1]; RI-2 3 uM
  ER luminal [Ca2+] change (F/F0): 1.043 and 1.036 and 1.039
WT RyR1 [1]; RI-2 10 uM
  ER luminal [Ca2+] change (F/F0): 1.092 and 1.122 and 1.066
WT RyR1 [1]; RI-2 30 uM
  ER luminal [Ca2+] change (F/F0): 1.229 and 1.248 and 1.218
WT RyR1 [1]; RI-2 100 uM
  ER luminal [Ca2+] change (F/F0): 1.681 and 1.622 and 1.659
WT RyR1 [2]; 100 uM RI-2
  effect on Ca2+-dependent [3H]ryanodine binding: inhibitory effect
WT RyR1 [2]; pCa 2.04
  [3H]ryanodine binding (B/Bmax): 0.002952 (2×) and 0.002725 and -0.000227
WT RyR1 [2]; pCa 2.67
  [3H]ryanodine binding (B/Bmax): 0.005451 and 0.006359 and 0.002952 and 0.002725
WT RyR1 [2]; pCa 3.39
  [3H]ryanodine binding (B/Bmax): 0.01453 and 0.0134 and 0.008857 (2×)
WT RyR1 [2]; pCa 4.03
  [3H]ryanodine binding (B/Bmax): 0.02816 and 0.03452 and 0.02475 and 0.02703
WT RyR1 [2]; pCa 4.66
  [3H]ryanodine binding (B/Bmax): 0.04474 and 0.04315 and 0.03702 and 0.03429
WT RyR1 [2]; pCa 5.03
  [3H]ryanodine binding (B/Bmax): 0.04565 and 0.04292 and 0.03884 and 0.03702
WT RyR1 [2]; pCa 5.42
  [3H]ryanodine binding (B/Bmax): 0.0293 and 0.03838 and 0.02362 and 0.0243
WT RyR1 [2]; pCa 6
  [3H]ryanodine binding (B/Bmax): 0.009312 and 0.01272 and 0.009084 and 0.003634
WT RyR1 [2]; pCa 6.54
  [3H]ryanodine binding (B/Bmax): 0.005678 and 0.003861 and -0.000454 and 0.00159
WT RyR1 [2]; pCa 6.97
  [3H]ryanodine binding (B/Bmax): 0.004088 and 0.006813 and 0.002044 and 0.0009084
WT RyR1 [2]; pCa 7.49
  [3H]ryanodine binding (B/Bmax): 0.001136 and 0.002044 (2×) and 0.001363
